# According to PubChem BioAssay (NCI):
#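 Following 48 hours of exposure in 96-well plates, responses at five concentrations were used to interpolate endpoints linearly. The concentration for full growth arrest is given as TGI.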
# Tests used:
# Test in all cases: NCI-60 cell line screen, 48 h
# 786-0 renal = test system: 786-0 renal
# A498 renal = test system: A498 renal
# A549 NSCLC = test system: A549 NSCLC
# ACHN renal = test system: ACHN renal
# BT-549 breast = test system: BT-549 breast
# CAKI-1 renal = test system: CAKI-1 renal
# CCRF-CEM leukemia = test system: CCRF-CEM leukemia
# COLO 205 colon = test system: COLO 205 colon
# EKVX NSCLC = test system: EKVX NSCLC
# HCC-2998 colon = test system: HCC-2998 colon
# HCT-116 colon = test system: HCT-116 colon
# HCT-15 colon = test system: HCT-15 colon
# HL-60(TB) leukemia = test system: HL-60(TB) leukemia
# HOP-62 NSCLC = test system: HOP-62 NSCLC
# HOP-92 NSCLC = test system: HOP-92 NSCLC
# HS 578T breast = test system: HS 578T breast
# HT29 colon = test system: HT29 colon
# IGROV1 ovarian = test system: IGROV1 ovarian
# K-562 leukemia = test system: K-562 leukemia
# KM12 colon = test system: KM12 colon
# LOX IMVI melanoma = test system: LOX IMVI melanoma
# M14 melanoma = test system: M14 melanoma
# MALME-3M melanoma = test system: MALME-3M melanoma
# MCF7 breast = test system: MCF7 breast
# MDA-MB-231 breast = test system: MDA-MB-231 breast
# MDA-MB-435 = test system: MDA-MB-435
# MOLT-4 leukemia = test system: MOLT-4 leukemia
# NCI-H226 lung = test system: NCI-H226 lung
# NCI-H23 lung = test system: NCI-H23 lung
# NCI-H460 lung = test system: NCI-H460 lung
# NCI-H522 lung = test system: NCI-H522 lung
# NCI/ADR-RES ovarian = test system: NCI/ADR-RES ovarian
# OVCAR-3 ovarian = test system: OVCAR-3 ovarian
# OVCAR-4 ovarian = test system: OVCAR-4 ovarian
# OVCAR-5 ovarian = test system: OVCAR-5 ovarian
# OVCAR-8 ovarian = test system: OVCAR-8 ovarian
# PC-3 prostate = test system: PC-3 prostate
# RPMI-8226 leukemia = test system: RPMI-8226 leukemia
# RXF 393 renal = test system: RXF 393 renal
# SF-268 CNS = test system: SF-268 CNS
# SF-295 CNS = test system: SF-295 CNS
# SF-539 CNS = test system: SF-539 CNS
# SK-MEL-2 melanoma = test system: SK-MEL-2 melanoma
# SK-MEL-28 melanoma = test system: SK-MEL-28 melanoma
# SK-MEL-5 melanoma = test system: SK-MEL-5 melanoma
# SK-OV-3 ovarian = test system: SK-OV-3 ovarian
# SN12C renal = test system: SN12C renal
# SNB-19 CNS = test system: SNB-19 CNS
# SNB-75 CNS = test system: SNB-75 CNS
# SR leukemia = test system: SR leukemia
# SW-620 colon = test system: SW-620 colon
# T-47D breast = test system: T-47D breast
# TK-10 renal = test system: TK-10 renal
# U251 CNS = test system: U251 CNS
# UACC-257 melanoma = test system: UACC-257 melanoma
# UACC-62 melanoma = test system: UACC-62 melanoma
# UO-31 renal = test system: UO-31 renal
smiles,measurement,setting,value
COC1=CC2(CC(OC)=C1OC)OC21COc2ccccc2C1=O (configuration not stated),TGI,786-0 renal,> 100 µM
same,TGI,A498 renal,> 100 µM
same,TGI,A549 NSCLC,> 100 µM
same,TGI,ACHN renal,> 100 µM
same,TGI,BT-549 breast,> 100 µM
same,TGI,CAKI-1 renal,> 100 µM
same,TGI,CCRF-CEM leukemia,> 100 µM
same,TGI,COLO 205 colon,> 100 µM
same,TGI,EKVX NSCLC,> 100 µM
same,TGI,HCC-2998 colon,> 100 µM
same,TGI,HCT-116 colon,> 100 µM
same,TGI,HCT-15 colon,> 100 µM
same,TGI,HL-60(TB) leukemia,> 100 µM
same,TGI,HOP-62 NSCLC,> 100 µM
same,TGI,HOP-92 NSCLC,> 100 µM
same,TGI,HS 578T breast,> 100 µM
same,TGI,HT29 colon,> 100 µM
same,TGI,IGROV1 ovarian,> 100 µM
same,TGI,K-562 leukemia,> 100 µM
same,TGI,KM12 colon,> 100 µM
same,TGI,LOX IMVI melanoma,> 100 µM
same,TGI,M14 melanoma,> 100 µM
same,TGI,MALME-3M melanoma,> 100 µM
same,TGI,MCF7 breast,> 100 µM
same,TGI,MDA-MB-231 breast,> 100 µM
same,TGI,MDA-MB-435,> 100 µM
same,TGI,MOLT-4 leukemia,> 100 µM
same,TGI,NCI-H226 lung,> 100 µM
same,TGI,NCI-H23 lung,> 100 µM
same,TGI,NCI-H460 lung,> 100 µM
same,TGI,NCI-H522 lung,> 100 µM
same,TGI,NCI/ADR-RES ovarian,> 100 µM
same,TGI,OVCAR-3 ovarian,> 100 µM
same,TGI,OVCAR-4 ovarian,> 100 µM
same,TGI,OVCAR-5 ovarian,> 100 µM
same,TGI,OVCAR-8 ovarian,> 100 µM
same,TGI,PC-3 prostate,> 100 µM
same,TGI,RPMI-8226 leukemia,> 100 µM
same,TGI,RXF 393 renal,> 100 µM
same,TGI,SF-268 CNS,> 100 µM
same,TGI,SF-295 CNS,> 100 µM
same,TGI,SF-539 CNS,> 100 µM
same,TGI,SK-MEL-2 melanoma,> 100 µM
same,TGI,SK-MEL-28 melanoma,> 100 µM
same,TGI,SK-MEL-5 melanoma,> 100 µM
same,TGI,SK-OV-3 ovarian,> 100 µM
same,TGI,SN12C renal,> 100 µM
same,TGI,SNB-19 CNS,> 100 µM
same,TGI,SNB-75 CNS,> 100 µM
same,TGI,SR leukemia,89.7 µM
same,TGI,SW-620 colon,> 100 µM
same,TGI,T-47D breast,> 100 µM
same,TGI,TK-10 renal,> 100 µM
same,TGI,U251 CNS,> 100 µM
same,TGI,UACC-257 melanoma,> 100 µM
same,TGI,UACC-62 melanoma,> 100 µM
same,TGI,UO-31 renal,> 100 µM
